# Measured values published in PMC12389580, “Neuromuscular System of Nematodes Is a Target of Synergistic Pharmacological Effects of Carvacrol and Geraniol” (Pharmaceuticals, 2025).
# Experiments:
# Assay in all cases: two-electrode voltage clamp, Xenopus oocytes
# Format in all cases: cell-based
# Asu-ACR-16 nAChR [1] = molecular target: T1, Asu-ACR-16 nAChR (Ascaris suum, UniProt A0A0K0QSL7); settings: non-competitive inhibition of ACh-evoked currents, -60 mV
# T1 construct: homopentameric nAChR; full-length subunit cRNA injected in Xenopus laevis oocytes; no auxiliary subunit mentioned
# T1 sequence (A0A0K0QSL7 1-504): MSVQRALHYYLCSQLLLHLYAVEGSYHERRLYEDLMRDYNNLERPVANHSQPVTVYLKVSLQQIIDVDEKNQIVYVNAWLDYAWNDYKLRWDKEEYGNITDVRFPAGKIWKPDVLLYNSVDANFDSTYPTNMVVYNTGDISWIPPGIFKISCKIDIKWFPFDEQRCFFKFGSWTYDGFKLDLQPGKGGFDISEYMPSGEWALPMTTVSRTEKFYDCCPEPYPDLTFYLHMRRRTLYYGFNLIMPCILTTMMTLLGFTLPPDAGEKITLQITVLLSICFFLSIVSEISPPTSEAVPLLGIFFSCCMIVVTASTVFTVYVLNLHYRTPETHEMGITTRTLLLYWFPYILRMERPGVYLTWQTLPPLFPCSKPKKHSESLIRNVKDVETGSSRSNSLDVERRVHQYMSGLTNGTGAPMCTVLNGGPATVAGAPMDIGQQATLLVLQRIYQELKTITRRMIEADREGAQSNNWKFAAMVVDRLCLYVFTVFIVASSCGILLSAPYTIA
# Asu-ACR-16 nAChR [2] = molecular target: T1, Asu-ACR-16 nAChR; settings: non-competitive antagonist of ACh-evoked currents, -60 mV
# Asu-ACR-16 nAChR [3] = molecular target: T1, Asu-ACR-16 nAChR
smiles,measurement,setting,value
CC(C)=CCC/C(C)=C/CO [geraniol],Emax of ACh at 100 μM geraniol (% of response to 100 μM ACh; control 97.63 ± 0.92%),Asu-ACR-16 nAChR [1],39.83 ± 1.49%
Cc1ccc(C(C)C)cc1O [carvacrol],Emax of ACh at 100 μM carvacrol (% of response to 100 μM ACh),Asu-ACR-16 nAChR [2],73.09 ± 1.87%
CC(=O)OCC[N+](C)(C)C [acetylcholine],EC50,Asu-ACR-16 nAChR [3],7.89 ± 1.02 µM
